Columns and labels:
Experiment in all cases: Test D controlled growth environment herbicide test, pre- and postemergence
Format in all cases: in vivo
[1] = tested on: barley, spring (spring barley, Hordeum vulgare)
Summary of the method: (§1)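 Species sown in silt loam and sprayed preemergence, or grown in peat-based medium to 2–18 cm (1- to 4-leaf stage) and sprayed postemergence, with compounds in non-phytotoxic solvent plus surfactant. Visual injury scored versus controls after 14–21 d in a controlled environment, 0 (no effect) to 100 (complete control).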

[2] = tested on: blackgrass (Alopecurus myosuroides)
Summary of the method: as §1

[3] = tested on: bluegrass (annual bluegrass, Poa annua)
Summary of the method: as §1

[4] = tested on: buckwheat, wild (wild buckwheat, Polygonum convolvulus)
Summary of the method: as §1

[5] = tested on: canarygrass (Phalaris minor)
Summary of the method: as §1

[6] = tested on: chamomile (scentless chamomile, Matricaria inodora)
Summary of the method: as §1

[7] = tested on: field violet (Viola arvensis)
Summary of the method: as §1

[8] = tested on: foxtail, green (green foxtail, Setaria viridis)
Summary of the method: as §1

[9] = tested on: oat, wild (wild oat, Avena fatua)
Summary of the method: as §1

[10] = tested on: pigweed (Amaranthus retroflexus)
Summary of the method: as §1

[11] = tested on: radish, wild (wild radish, Raphanus raphanistrum)
Summary of the method: as §1

[12] = tested on: ryegrass, Italian (Italian ryegrass, Lolium multiflorum)
Summary of the method: as §1

[13] = tested on: wheat, spring (spring wheat, Triticum aestivum)
Summary of the method: as §1

[14] = Postemergence, 31 g ai/ha, scale 0 to 100 (0 no effect, 100 complete control)
[15] = Postemergence, 125 g ai/ha, visual rating on scale 0 (no effect) to 100 (complete control), 14 to 21 d
[16] = Postemergence, 250 g ai/ha, scale 0 to 100 (0 no effect, 100 complete control)
[17] = Preemergence, 62 g ai/ha, scale 0 to 100 (0 no effect, 100 complete control)
[18] = Preemergence, 125 g ai/ha, scale 0 to 100 (0 no effect, 100 complete control)
[19] = Preemergence, 250 g ai/ha, scale 0 to 100 (0 no effect, 100 complete control)
[20] = postemergence, 62 g ai/ha, scale 0 to 100, 0 no effect, 100 complete control

CCOC(=O)Oc1c(C)nn(C)c(=O)c1-c1c(C)sc2c(C)cc(C)cc12 [Compound 83]
Barley, Spring plant response rating [1, 14]: 0 | Plant response rating, Barley, Spring [1, 15]: 5 | Plant response rating, Barley, Spring [1, 16]: 10 | Plant response rating (scale of 0 to 100), Barley, Spring ([1]; Preemergence, 31 g ai/ha): 0 | Plant response rating, Barley, Spring [1, 17]: 0 | Plant response rating, Barley, Spring [1, 18]: 0 | Plant response rating, Barley, Spring [1, 19]: 5 | Plant response rating, Barley, Spring [1, 20]: 5 | Blackgrass plant response rating [2, 14]: 65 | Plant response rating, Blackgrass [2, 15]: 75 | Plant response rating, Blackgrass [2, 16]: 80 | Plant response rating (scale of 0 to 100), Blackgrass ([2]; Preemergence, 31 g ai/ha): 20 | Plant response rating, Blackgrass [2, 17]: 60 | Plant response rating, Blackgrass [2, 18]: 70 | Plant response rating, Blackgrass [2, 19]: 85 | Plant response rating, Blackgrass [2, 20]: 70 | Bluegrass plant response rating [3, 14]: 0 | Plant response rating, Bluegrass [3, 15]: 15 | Plant response rating, Bluegrass [3, 16]: 25 | Plant response rating (scale of 0 to 100), Bluegrass ([3]; Preemergence, 31 g ai/ha): 15 | Plant response rating, Bluegrass [3, 17]: 15 | Plant response rating, Bluegrass [3, 18]: 35 | Plant response rating, Bluegrass [3, 19]: 35 | Plant response rating, Bluegrass [3, 20]: 10 | Buckwheat, Wild plant response rating [4, 14]: 100 | Plant response rating, Buckwheat, Wild [4, 15]: 100 | Plant response rating, Buckwheat, Wild [4, 16]: 100 | Plant response rating (scale of 0 to 100), Buckwheat, Wild ([4]; Preemergence, 31 g ai/ha): 0 | Plant response rating, Buckwheat, Wild [4, 17]: 0 | Plant response rating, Buckwheat, Wild [4, 18]: 0 | Plant response rating, Buckwheat, Wild [4, 19]: 25 | Plant response rating, Buckwheat, Wild [4, 20]: 100 | Canarygrass plant response rating [5, 14]: 50 | Plant response rating, Canarygrass [5, 15]: 80 | Plant response rating, Canarygrass [5, 16]: 90 | Plant response rating (scale of 0 to 100), Canarygrass ([5]; Preemergence, 31 g ai/ha): 65 | Plant response rating (scale of 0 to 100), Canarygrass ([5]; Preemergence, 62 g ai/ha): 85 | Plant response rating, Canarygrass [5, 18]: 90 | Plant response rating, Canarygrass [5, 19]: 100 | Plant response rating, Canarygrass [5, 20]: 75 | Chamomile plant response rating [6, 14]: 95 | Plant response rating, Chamomile [6, 15]: 100 | Plant response rating, Chamomile [6, 16]: 100 | Plant response rating, Chamomile [6, 20]: 100 | Field Violet plant response rating [7, 14]: 90 | Plant response rating, Field Violet [7, 15]: 100 | Plant response rating, Field Violet [7, 16]: 100 | Plant response rating (scale of 0 to 100), Field Violet ([7]; Preemergence, 31 g ai/ha): 75 | Plant response rating (scale of 0 to 100), Field Violet ([7]; Preemergence, 62 g ai/ha): 80 | Plant response rating, Field Violet [7, 18]: 95 | Plant response rating, Field Violet [7, 19]: 100 | Plant response rating, Field Violet [7, 20]: 80 | Foxtail, Green plant response rating [8, 14]: 75 | Plant response rating, Foxtail, Green [8, 15]: 90 | Plant response rating, Foxtail, Green [8, 16]: 100 | Plant response rating (scale of 0 to 100), Foxtail, Green ([8]; Preemergence, 31 g ai/ha): 15 | Plant response rating (scale of 0 to 100), Foxtail, Green ([8]; Preemergence, 62 g ai/ha): 50 | Plant response rating, Foxtail, Green [8, 18]: 100 | Plant response rating, Foxtail, Green [8, 19]: 100 | Plant response rating, Foxtail, Green [8, 20]: 90 | Oat, Wild plant response rating [9, 14]: 80 | Plant response rating, Oat, Wild [9, 15]: 90 | Plant response rating, Oat, Wild [9, 16]: 95 | Plant response rating (scale of 0 to 100), Oat, Wild ([9]; Preemergence, 31 g ai/ha): 80 | Plant response rating (scale of 0 to 100), Oat, Wild ([9]; Preemergence, 62 g ai/ha): 85 | Plant response rating, Oat, Wild [9, 18]: 90 | Plant response rating, Oat, Wild [9, 19]: 90 | Plant response rating, Oat, Wild [9, 20]: 85 | Pigweed plant response rating [10, 14]: 100 | Plant response rating, Pigweed [10, 15]: 100 | Plant response rating, Pigweed [10, 16]: 100 | Plant response rating (scale of 0 to 100), Pigweed ([10]; Preemergence, 31 g ai/ha): 100 | Plant response rating (scale of 0 to 100), Pigweed ([10]; Preemergence, 62 g ai/ha): 100 | Plant response rating, Pigweed [10, 18]: 100 | Plant response rating, Pigweed [10, 19]: 100 | Plant response rating, Pigweed [10, 20]: 100 | Radish, Wild plant response rating [11, 14]: 75 | Plant response rating, Radish, Wild [11, 15]: 100 | Plant response rating, Radish, Wild [11, 16]: 100 | Plant response rating (scale of 0 to 100), Radish, Wild ([11]; Preemergence, 31 g ai/ha): 30 | Plant response rating (scale of 0 to 100), Radish, Wild ([11]; Preemergence, 62 g ai/ha): 70 | Plant response rating, Radish, Wild [11, 18]: 90 | Plant response rating, Radish, Wild [11, 19]: 90 | Plant response rating, Radish, Wild [11, 20]: 90 | Ryegrass, Italian plant response rating [12, 14]: 80 | Plant response rating, Ryegrass, Italian [12, 15]: 90 | Plant response rating, Ryegrass, Italian [12, 16]: 90 | Plant response rating (scale of 0 to 100), Ryegrass, Italian ([12]; Preemergence, 31 g ai/ha): 40 | Plant response rating (scale of 0 to 100), Ryegrass, Italian ([12]; Preemergence, 62 g ai/ha): 75 | Plant response rating, Ryegrass, Italian [12, 18]: 90 | Plant response rating, Ryegrass, Italian [12, 19]: 100 | Plant response rating, Ryegrass, Italian [12, 20]: 85 | Wheat, Spring plant response rating [13, 14]: 0 | Plant response rating, Wheat, Spring [13, 15]: 5 | Plant response rating, Wheat, Spring [13, 16]: 20 | Plant response rating (scale of 0 to 100), Wheat, Spring ([13]; Preemergence, 31 g ai/ha): 0 | Plant response rating (scale of 0 to 100), Wheat, Spring ([13]; Preemergence, 62 g ai/ha): 0 | Plant response rating, Wheat, Spring [13, 18]: 10 | Plant response rating, Wheat, Spring [13, 19]: 35 | Plant response rating, Wheat, Spring [13, 20]: 0

— patent US10597388B2, “Pyridazinone herbicides” (FMC CORPORATION, priority 2014, dated 2020)
